Results from patent US9676715B2, “Bis-indolic derivatives, a process for preparing the same and their uses as a drug” (UNIVERSITE JOSEPH FOURIER, priority 2011, dated 2017).
Values after ≈ are worked out from the molar mass of the structure shown.

Columns and labels:
[1] = system: HCT116 (human colon tumor); experiment: In vitro cytotoxicity; assay type: cell-based; details: read-out: % of cellular growth inhibition; for inhibition at 10 µM: HCT-116, 10^−5 M; for inhibition at 1 µM: HCT-116, 10^−6 M
Procedure: (§1) In vitro cytotoxicity was assayed on three cell lines—KB (human mouth carcinoma), MCR5 (human lung fibroblast) and HCT116 (human colon tumor). Results are presented in table IV as % of cellular growth inhibition in presence of 10^−5 M and 10^−6 M of the tested bis-indolic derivatives.

[2] = system: KB (human mouth carcinoma); experiment: In vitro cytotoxicity; assay type: cell-based; details: read-out: % of cellular growth inhibition; for inhibition at 10 µM: 10^−5 M; for inhibition at 1 µM: 10^−6 M
Procedure: as §1

[3] = system: MRC5 (human lung fibroblast); experiment: In vitro cytotoxicity; assay type: cell-based; details: read-out: % of cellular growth inhibition; for inhibition at 10 µM: 10^−5 M; for inhibition at 1 µM: 10^−6 M
Procedure: as §1

E. faecalis ATCC 29212 = experiment: MIC, microdilution method (9.1); assay type: cell-based, Enterococcus faecalis; details: Enterococcus faecalis, ATCC29212, 18 h, read-out: MIC
Procedure: (§2) The microdilution method recommended by the Clinical and Laboratory Standard Institute [M07-A8, Vol. 29, No. 2] was used. The activity of indolic compounds was tested against 29 bacterial strains belonging to 17 different species and 12 different genera (Staphylococcus, Streptococcus, Enterococcus, Listeria, Bacillus, Haemophilus, Escherichia, Klebsiella, Enterobacter, Serratia, Pseudomonas, and Acinetobacter). Bacterial inocula were prepared in Mueller Hinton broth (MH2, bioMérieux, Marcy L'Etoile, France), supplemented with 10% sheep blood for fastidious species (i.e., Streptococcus pneumoniae and Haemophilus influenzae). They were dispensed in 96 well microtiter plates (5×10^5 CFU/ml of final inoculum). Indolic compounds were added to the wells as to obtain two-fold serial concentrations (0.50-128 mg/L of final concentrations). Plates were incubated at 37° C. in ambient air, or at 37° C. in 5% CO2 enriched atmosphere for fastidious species. […] Drug-free cultures served as growth controls. Cultures receiving gentamicin, ciprofloxacin or cefotaxime served as positive controls.

[4] = system: S. agalactiae (group B) ATCC 12400; experiment: MIC, microdilution method (9.1); assay type: cell-based, Streptococcus agalactiae; details: Streptococcus agalactiae, ATCC12400, 18 h, read-out: MIC
Procedure: as §2

[5] = system: HCT116 (human colon tumor); experiment: In vitro cytotoxicity; assay type: cell-based; details: HCT-116, HCT116, from 100 μM to 0.005 μM in DMSO, duplicate
[6] = system: S. pyogenes (group A) CIP 104226; experiment: MIC, microdilution method (9.1); assay type: cell-based, Streptococcus pyogenes; details: Streptococcus pyogenes, CIP104226, 18 h, read-out: MIC
Procedure: as §2

S. pneumoniae ATCC 6303 = experiment: MIC, microdilution method (9.1); assay type: cell-based, Streptococcus pneumoniae; details: Streptococcus pneumoniae, ATCC6303, 10% sheep blood, 5% CO2, 18 h, read-out: MIC
Procedure: as §2

S. aureus ATCC 29213 = experiment: MIC, microdilution method (9.1); assay type: cell-based, Staphylococcus aureus; details: Staphylococcus aureus, ATCC29213, read after 18 h, read-out: MIC
Procedure: as §2

S. aureus ATCC 9144 = experiment: MIC, microdilution method (9.1); assay type: cell-based, Staphylococcus aureus; details: Staphylococcus aureus, ATCC9144, read after 18 h, read-out: MIC
Procedure: as §2

S. aureus ATCC 25923 = experiment: MIC, microdilution method (9.1); assay type: cell-based, Staphylococcus aureus; details: Staphylococcus aureus, ATCC25923, read after 18 h, read-out: MIC
Procedure: as §2

[7] = system: S. aureus CIP 65.25 (MRSA); experiment: MIC, microdilution method (9.1); assay type: cell-based, Staphylococcus aureus; details: Staphylococcus aureus, read after 18 h, read-out: MIC
Procedure: as §2

[8] = system: S. aureus ATCC 33592 (MRSA); experiment: MIC, microdilution method (9.1); assay type: cell-based, Staphylococcus aureus; details: Staphylococcus aureus, read after 18 h, read-out: MIC
Procedure: as §2

[9] = system: S. aureus ATCC 106414 (VISA); experiment: MIC, microdilution method (9.1); assay type: cell-based, Staphylococcus aureus; details: Staphylococcus aureus, read after 18 h, read-out: MIC
Procedure: as §2

S. aureus CIP 103428 = experiment: MIC, microdilution method (9.1); assay type: cell-based, Staphylococcus aureus; details: Staphylococcus aureus, CIP103428, read after 18 h, read-out: MIC
Procedure: as §2

S. aureus ATCC 6538 = experiment: MIC, microdilution method (9.1); assay type: cell-based, Staphylococcus aureus; details: Staphylococcus aureus, ATCC6538, read after 18 h, read-out: MIC
Procedure: as §2

S. aureus SA-1199B = experiment: MIC, microdilution method (9.1); assay type: cell-based, Staphylococcus aureus; details: Staphylococcus aureus, SA1199B, 18 h
Procedure: as §2

S. aureus CIP 65.6 = experiment: MIC, microdilution method (9.1); assay type: cell-based, Staphylococcus aureus; details: Staphylococcus aureus, CIP65, read after 18 h, read-out: MIC
Procedure: as §2

[10] = system: Listeria innocua CIP 80.11; experiment: MIC, microdilution method (9.1); assay type: cell-based; details: CIP80, 18 h, read-out: MIC
Procedure: as §2

[11] = system: Enterobacter cloacae ATCC13047; experiment: MIC, microdilution method (9.1); assay type: cell-based; details: 18 h
Procedure: as §2

[12] = system: Escherichia coli ATCC 25922; experiment: MIC, microdilution method (9.1); assay type: cell-based; details: ATCC25922, 18 h
Procedure: as §2

[13] = system: Acinetobacter baumanii ATCC 19606; experiment: MIC, microdilution method (9.1); assay type: cell-based; details: Acinetobacter baumannii, ATCC19606, 18 h, read-out: MIC
Procedure: as §2

[14] = system: Klebsiella pneumoniae API ATCC 35657; experiment: MIC, microdilution method (9.1); assay type: cell-based; details: ATCC35657, 18 h, read-out: MIC
Procedure: as §2

[15] = system: Serratia marcescens CIP 103551; experiment: MIC, microdilution method (9.1); assay type: cell-based; details: CIP103551, 18 h
Procedure: as §2

S. pneumoniae ATCC 49619 = experiment: MIC, microdilution method (9.1); assay type: cell-based; details: Streptococcus pneumoniae, ATCC49619, 10% sheep blood, 5% CO2, 18 h
Procedure: as §2

[16] = system: Pseudomonas aeruginosa CIP 5933; experiment: MIC, microdilution method (9.1); assay type: cell-based; details: CIP5933, 18 h, read-out: MIC
Procedure: as §2

[17] = system: Haemophilus influenzae ATCC 49766; experiment: MIC, microdilution method (9.1); assay type: cell-based; details: ATCC49766; Haemophilus influenzae ATCC 49766; 10% sheep blood, 5% CO2; 18 h; read-out: MIC
Procedure: as §2

[18] = system: Bacillus subtilis CIP 5262; experiment: MIC, microdilution method (9.1); assay type: cell-based; details: CIP5262, 18 h, read-out: MIC
Procedure: as §2

[19] = system: S. epidermidis CIP 103627; experiment: MIC, microdilution method (9.1); assay type: cell-based, Staphylococcus epidermidis; details: Staphylococcus epidermidis, CIP103627, read after 18 h, read-out: MIC
Procedure: as §2

[20] = system: S. epidermidis ATCC 12228; experiment: MIC, microdilution method (9.1); assay type: cell-based, Staphylococcus epidermidis; details: Staphylococcus epidermidis, ATCC12228, read after 18 h, read-out: MIC
Procedure: as §2

S. epidermidis CIP 81.55 = experiment: MIC, microdilution method (9.1); assay type: cell-based, Staphylococcus epidermidis; details: Staphylococcus epidermidis, CIP81, read after 18 h, read-out: MIC
Procedure: as §2

E. faecium CIP 54.32 = experiment: MIC, microdilution method (9.1); assay type: cell-based, Enterococcus faecium; details: Enterococcus faecium, CIP54, 18 h, read-out: MIC
Procedure: as §2

S. mitis CIP 103335 = experiment: MIC, microdilution method (9.1); assay type: cell-based, Streptococcus mitis; details: Streptococcus mitis, CIP103335, 18 h, read-out: MIC
Procedure: as §2

Row | SMILES | inhibition at 10 µM [1] | inhibition at 1 µM [1] | inhibition at 10 µM [2] | inhibition at 1 µM [2] | inhibition at 10 µM [3] | inhibition at 1 µM [3] | MIC (E. faecalis ATCC 29212) | MIC [4] | IC50 ([5]; first value) | IC50 ([5]; second value) | MIC [6] | MIC (S. pneumoniae ATCC 6303) | MIC (S. aureus ATCC 29213) | MIC (S. aureus ATCC 9144) | MIC (S. aureus ATCC 25923) | MIC [7] | MIC [8] | MIC [9] | MIC (S. aureus CIP 103428) | MIC (S. aureus ATCC 6538) | other results
1 | CC(C)(C)OC(=O)NCC(NC(=O)c1c[nH]c2ccc(Br)cc12)c1c[nH]c2ccccc12 (centres unmarked) [Compound 3c, tert-Butyl [2-(1H-indol-3-yl)-2-(5-bromo-1H-indol-3-yl-carboxamido)ethyl]carbamate] | 42 ± 3% | 11% | 46 ± 8% | 0% | 16 ± 9% | 0% | > 128 µg/mL | 64 µg/mL (≈ 129 µM) | 8.02 µM | 5.43 µM | 64 µg/mL (≈ 129 µM) | 32 µg/mL (≈ 64.3 µM) | 8 µg/mL (≈ 16.1 µM) | 8 µg/mL (≈ 16.1 µM) | 8 µg/mL (≈ 16.1 µM) | 8 µg/mL (≈ 16.1 µM) | 8 µg/mL (≈ 16.1 µM) | 8 µg/mL (≈ 16.1 µM) | 8 µg/mL (≈ 16.1 µM) | 8 µg/mL (≈ 16.1 µM) | MIC (S. aureus SA-1199B): 8 µg/mL (≈ 16.1 µM); MIC (S. aureus CIP 65.6): 8 µg/mL (≈ 16.1 µM); MIC [10]: > 128 µg/mL; MIC [11]: > 128 µg/mL; MIC [12]: > 128 µg/mL; MIC [13]: > 128 µg/mL; MIC [14]: > 128 µg/mL; MIC [15]: > 128 µg/mL; MIC (S. pneumoniae ATCC 49619): 32 µg/mL (≈ 64.3 µM); MIC [16]: > 128 µg/mL; MIC [17]: > 128 µg/mL; MIC [18]: 64 µg/mL (≈ 129 µM); MIC [19]: 8 µg/mL (≈ 16.1 µM); MIC [20]: 8 µg/mL (≈ 16.1 µM); MIC (S. epidermidis CIP 81.55): 8 µg/mL (≈ 16.1 µM); MIC (E. faecium CIP 54.32): > 128 µg/mL; MIC (S. mitis CIP 103335): 64 µg/mL (≈ 129 µM)
2 | CC(C)(C)OC(=O)NCC(NC(=O)c1c[nH]c2cc(Br)ccc12)c1c[nH]c2ccc(Br)cc12 (centres unmarked) [Compound 3g, tert-Butyl(2-(5-bromo-1H-indol-3-yl)-2-(6-bromo-1H-indolyl-3-carboxamido)ethyl)carbamate] | 86 ± 2% | 9% | 98 ± 1% | 0% | 83 ± 10% | 0% | > 128 µg/mL | 64 µg/mL (≈ 111 µM) | 5.48 µM | 6.06 µM | 64 µg/mL (≈ 111 µM) | 32 µg/mL (≈ 55.5 µM) | 2 µg/mL (≈ 3.47 µM) | 2 µg/mL (≈ 3.47 µM) | 2 µg/mL (≈ 3.47 µM) | 1 µg/mL (≈ 1.74 µM) | 2 µg/mL (≈ 3.47 µM) | 1 µg/mL (≈ 1.74 µM) | 1 µg/mL (≈ 1.74 µM) | 2 µg/mL (≈ 3.47 µM) | MIC (S. aureus SA-1199B): 2 µg/mL (≈ 3.47 µM); MIC (S. aureus CIP 65.6): 2 µg/mL (≈ 3.47 µM); MIC [10]: 128 µg/mL (≈ 222 µM); MIC [11]: > 128 µg/mL; MIC [12]: > 128 µg/mL; MIC [13]: > 128 µg/mL; MIC [14]: > 128 µg/mL; MIC [15]: > 128 µg/mL; MIC (S. pneumoniae ATCC 49619): 32 µg/mL (≈ 55.5 µM); MIC [16]: > 128 µg/mL; MIC [17]: 64 µg/mL (≈ 111 µM); MIC [18]: 32 µg/mL (≈ 55.5 µM); MIC [19]: 2 µg/mL (≈ 3.47 µM); MIC [20]: 1 µg/mL (≈ 1.74 µM); MIC (S. epidermidis CIP 81.55): 2 µg/mL (≈ 3.47 µM); MIC (E. faecium CIP 54.32): > 128 µg/mL; MIC (S. mitis CIP 103335): 64 µg/mL (≈ 111 µM)
